The results in this text go back to patent US8383637B2, “2-amino-quinazoline derivatives useful as inhibitors of β-secretase (BACE)” (Jansssen Pharmaceutica N.V., priority 2004, dated 2013).

Molecules are shown by their SMILES. Read-outs that look alike come from different tables or passages of the source. Where only a bound is given, the exact number is not on record here.

Data set [1] addresses T1, β-secretase(BACE) (Homo sapiens, UniProt P56817).
T1 construct: purchased Panvera
Kind of data set: BACE FS1% Inhibition Assay. The conditions noted are these: FS1 substrate; for inhibition at 0.3 µM: 0.3 μM test compound; for inhibition at 1 µM: 1 μM test compound; for inhibition at 3 µM: 3 μM test compound. The format is biochemical. In a few lines: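 Human BACE (4 μg/mL working solution) preincubated 20 min at room temperature with compound, then FS1 substrate (300 μg/mL working solution) added and incubated 1 h at room temperature. Percent inhibition calculated at each compound concentration against blank and vehicle controls.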

The target of data set [2] is T1, β-secretase(BACE). Kind of data set: BACE Assay-1 (MCA-substrate, IC50). The format is biochemical. The following applies: procedure of Example 158; read-out: IC50 μM (158). An outline of the steps:
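Human BACE (work solution 10 μg/mL) with MCA-peptide substrate (stock 2.0 mg/mL) in 0.05 M citrate buffer, pH 5.0, with PEG8000. Fluorescence read at T0 and T60; compounds tested at multiple concentrations and IC50 calculated from these readings.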

For data set [3], the target named is T1, β-secretase(BACE). Kind of data set: BACE % Inhibition Assay ((Aedens)-[…]-(Dabcyl K-amide) substrate). Format: biochemical. The conditions noted are these: % error ±10%, read-out: % Inhibition; for inhibition at 3 µM: 3 μM test compound; for inhibition at 10 µM: 10 μM test compound. The procedure:
The substrate stock solution was prepared in DMSO as a 10 mg/mL solution. The substrate working solution was prepared by diluting the 10 mg/mL stock solution with substrate assay buffer to a final concentration of 300 μg/mL. The β-secretase (BACE) working solution was prepared by diluting a 0.83 mg/mL BACE stock solution with enzyme assay buffer to a final concentration of 4 μg/mL.
Test compounds were dissolved in DMSO to 10 mM.
The screening procedure for this assay was as follows: 15 μL of BACE working solution was pipetted into each well of a 96-well plate. To each well was then pipetted 2 μL of test compound at the selected concentration. Test compound and BACE were then mixed with a pipettor and incubated for 20 min at room temperature. To each well was then added 10 μL of the substrate working solution. The plates were then incubated for 1 hour at room temperature.
The procedure for the blank was as follows. 15 μL of assay buffer was pipetted into each well to be used as a blank control. To each well was then added 2 μL of vehicle and 10 μL of substrate working solution. The plates were then incubated for 1 hour at room temperature.
The procedure for the positive control was as follows: 15 μl of BACE working solution was pipetted into each well to be used as a positive control. To each well was then pipetted 2 μL of vehicle. Vehicle and BACE were then mixed with a pipettor and incubated for 20 min at room temperature. To each well was then added 10 μL of the substrate working solution. The plates were then incubated for 1 hour at room temperature.
For test compounds, % inhibition was determined at each concentration as follows: […]

Data set [4] has as its target T1, β-secretase(BACE). Kind of data set: BACE Assay-2 (FS1 substrate, IC50 and Ki). Format: biochemical. The following applies: procedure of Example 159, FS1 substrate; for Ki: read-out: Ki μM (159).
For data set [5], the target named is human BACE-1 (Homo sapiens, UniProt P56817). Kind of data set: BACE Assay (CEREP). Format: biochemical. The following applies: recombinant enzyme, 60 min at 37° C., pH 4.5; for inhibition at 0.3 µM: test compound 0.3 μM. How it is done:
The test compound, reference compound or water (control) were added to a buffer containing 0.09 M sodium acetate (pH 4.5) and 0.25 μg BACE-1. Compound interference with the fluorimetric detection method due to autofluorescence was then checked by measurements at the wavelengths defined to evaluate the enzyme activity. […] For control basal measurement, the substrate was omitted from the reaction mixture. […] The standard inhibitory reference compound was OM99-2, which was tested in each experiment at several concentrations to obtain an inhibition curve from which its IC50 value was calculated.

The mark [6] stands for this setting: read-out: % Inhibition (FS) 0.3 μM.
The mark [7] stands for this setting: read-out: % Inhibition (FS) 1 μM.
The mark [8] stands for this setting: read-out: % Inhibition (FS) 3 μM.

T1 sequence (P56817 46-501): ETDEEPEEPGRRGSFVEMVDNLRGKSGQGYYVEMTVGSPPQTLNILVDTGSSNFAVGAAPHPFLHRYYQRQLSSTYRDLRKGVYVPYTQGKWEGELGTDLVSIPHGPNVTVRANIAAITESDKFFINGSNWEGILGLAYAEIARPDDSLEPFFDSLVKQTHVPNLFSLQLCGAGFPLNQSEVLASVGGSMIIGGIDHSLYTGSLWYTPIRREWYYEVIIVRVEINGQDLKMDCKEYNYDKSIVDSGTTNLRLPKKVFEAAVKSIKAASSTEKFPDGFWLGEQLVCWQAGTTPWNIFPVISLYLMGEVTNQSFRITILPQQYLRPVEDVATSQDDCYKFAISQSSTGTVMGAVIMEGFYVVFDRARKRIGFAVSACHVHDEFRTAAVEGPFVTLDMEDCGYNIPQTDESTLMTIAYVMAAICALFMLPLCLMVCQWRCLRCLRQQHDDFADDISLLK
Sequence of human BACE-1 (P56817 46-501): as above

As to `CN(C(=O)CCN1Cc2cc(C(=O)c3ccccc3)ccc2N=C1N)C1CCCCC1`, the melting point was 198.1 °C.

On to `NC1=Nc2ccc(Oc3ccccc3)cc2CN1Cc1cccc(C(=O)N(C2CCCCC2)C2CCCCC2)c1` [Compound 98], for which the inhibition at 0.3 µM in data set [1] (setting [6]) was 49%. In addition, the inhibition at 1 µM in data set [1] (setting [7]) was 93%. For the same compound, the values for the inhibition at 3 µM in data set [1] (setting [8]) and in data set [3] were 114% and 76%, respectively. Moreover, the IC50 worked out at 0.2 µM in data set [2] and 2.3 µM in data set [4]. For the same compound, the inhibition at 10 µM in data set [3] is 99%. Also, in data set [4], the Ki was determined as 1.1 µM.

As to `CN(C(=O)c1cccc(CN2Cc3cc(Oc4cccc(NS(=O)(=O)c5ccccc5)c4)ccc3N=C2N)c1)C1CCCCC1` [Compound 110], the inhibition at 0.3 µM in data set [1] (setting [6]) was under 30%. Further, the inhibition at 1 µM in data set [1] (setting [7]) worked out at 30%. Besides, in data set [1] (setting [8]), the inhibition at 3 µM turned out to be 84%. The IC50 in data set [2] stood at 0.053 µM. In data set [3], the inhibition at 3 µM came to 75% and the inhibition at 10 µM was determined as 96%. In addition, in data set [4], the IC50 was found to be 1.24 µM and the inhibition constant Ki came to 0.4 µM.

On to `NC1=Nc2ccc(Oc3ccccc3)cc2CN1CCNC(=O)c1ccccc1` [Compound 154], for which the inhibition at 3 µM in data set [1] (setting [8]) stood at 56%. For the same compound, in data set [1] (10 μM test compound, read-out: % Inhibition (FS) 10 μM), the inhibition at 10 µM amounted to 79%. Further, in data set [5], the IC50 was over 1000 nM. In addition, the Ki in data set [4] turned out to be 0.61 µM.

Regarding `NC1=Nc2ccc(Oc3ccccc3)cc2CN1[C@@H](CCC(=O)N(Cc1ncc[nH]1)C1CCCCC1)C1CCCCC1` [Compound 788], in data set [1] (read-out: % Inhibition (FS)), the inhibition at 0.3 µM worked out at 110%, the inhibition at 1 µM was 114% and the inhibition at 3 µM came to 118%. Further, in data set [5], the IC50 was 160 nM and the inhibition at 0.3 µM is 97%.

As to `NC1=Nc2ccc(Oc3ccccc3)cc2CN1[C@@H](CCC(=O)N(Cc1ccncc1)C1CCCCC1)C1CCCCC1` [Compound 789], in data set [1] (read-out: % Inhibition (FS)), the inhibition at 0.3 µM is 80%, the inhibition at 1 µM was determined as 99% and the inhibition at 3 µM worked out at 106%. Moreover, in data set [5], the IC50 was found to be 78 nM and the inhibition at 0.3 µM amounted to 94%.

With `NC1=Nc2ccc(Oc3ccccc3)cc2CN1[C@@H](CCC(=O)N(Cc1nc[nH]n1)C1CCCCC1)C1CCCCC1` [Compound 790], in data set [5], the IC50 was 93 nM and the inhibition at 0.3 µM was found to be 98%.

As for `NC1=Nc2ccc(Oc3ccccc3)cc2CN1[C@@H](CCC(=O)N1C2CCCCC2C[C@H]1C(=O)O)C1CCCCC1` (stereo partly drawn) [Compound 795, 1-[4-(2-Amino-6-phenoxy-4H-quinazolin-3-yl)-4S-cyclohexyl-butyryl]-octahydro-indole-2S-carboxylic acid], in data set [5], the IC50 was found to be 150 nM and the inhibition at 0.3 µM came out at 98%.

Regarding `NC1=Nc2ccc(Oc3ccccc3)cc2CN1[C@@H](CCC(=O)N(Cc1cnc[nH]1)C1CCCCC1)C1CCCCC1` [Compound 796], the IC50 in data set [5] stood at 190 nM.

For the compound `CC(=O)OCC1OC(OCCN(C(=O)CCC(C2CCCCC2)N2Cc3cc(Oc4ccccc4)ccc3N=C2N)C2CCCCC2)C(OC(C)=O)C(OC(C)=O)C1OC(C)=O` (stereo not shown) [Compound 797], in data set [5], the IC50 is 120 nM and the inhibition at 0.3 µM came to 95%.

Regarding `NC1=Nc2ccc(Oc3ccccc3)cc2CN1[C@@H](CCC(=O)N(CCO[C@@H]1O[C@H](CO)[C@@H](O)[C@H](O)[C@H]1O)C1CCCCC1)C1CCCCC1` [Compound 798, 4-(2-Amino-6-phenoxy-4H-quinazolin-3-yl)-4S,N-dicyclohexyl-N-[2R-(3R,4S,5S-trihydroxy-6R-hydroxymethyl-tetrahydro-pyran-2-yloxy)-ethyl]-butyramide], in data set [5], the IC50 worked out at 74 nM and the inhibition at 0.3 µM worked out at 95%.

Broadly, the melting point is the temperature, or range, at which the solid turns liquid. As a reminder, the inhibition is the relative decrease from the control value, in per cent. Usually IC50 stands for the concentration at which inhibition is half-maximal. By Ki is commonly meant the equilibrium dissociation constant of an inhibitor or competing ligand from its target.
